Patent publication US20250134870A1, “PATHWAY MODULATOR, PHARMACEUTICAL COMPOSITION HAVING SAME, USE THEREOF, AND THERAPEUTIC METHOD USING SAME” (Jiangsu Yahong Meditech Co., Ltd., priority 2021, published 2025)
Where two headings read alike, the source gives them in different places.

Tests used:
[1] = system: 2,4-dinitrobenzenesulfonic acid (DNBS)-induced colitis; test: DNBS-induced colitis in rats: macroscopic evaluation of colon on Day 7 (colon length, weight, ulcer area, CW/CL, CW/BW, CW/CL/BW); format: in vivo, Wistar rats; settings: for inhibition at 3 mg/kg / inhibition at 10 mg/kg / inhibition at 30 mg/kg: Rattus norvegicus, 168 h; for BW / CW/BW ×100 / Ulcer area / Ulcer length / Ulcer width: mean
Procedure: (3) Colon observation: after the end of the experiment, all animals were anesthetized with Zoletil (intravenous injection, 25 mg/kg) and the abdominal cavity was opened. Blood was collected from the abdominal aorta with EDTA anticoagulation (centrifugation conditions: 4° C., 2,000 g, 10 min). After the animals were sacrificed by bloodletting, the colon (from the cecum to the anus) was dissected and the colon length was measured immediately. The colon was longitudinally incised and rinsed until clean. Then the colon weight and ulcer area were recorded, and the colon was photographed as a whole and divided into three parts, among which two parts were stored at −80° C. after flash freezing with liquid nitrogen for MPO and cytokine detection, and the other part of colon was fixed with 10% neutral buffered formalin. If the ulcer was irregularly shaped, it could be considered as rectangular, and then its length and width were measured for ulcer area assessment. Ulcer area (cm^2)=ulcer length (cm)×ulcer width (cm).

[2] = system: collagen-induced arthritis (CIA); test: Collagen-induced arthritis (CIA) in mice: body weight, clinical score, AUC, incidence (Example 9); format: in vivo, DBA/1 mice; settings: 50 mg/kg PO QD, 2 weeks
Procedure: DBA/1 mice were anesthetized with isoflurane and injected subcutaneously with 50 μL of prepared collagen emulsion (containing 200 μg of CII) in the tail. The day of the first immunization was recorded as Day 0, and the subsequent days were marked sequentially. On Day 21, mice were injected with a same volume of collagen emulsion in the tail.
Dosing lasted for 14 consecutive days. Compounds were prepared every 3 days and stored at 4° C.
Since Day 28, mice were weighed three times a week and clinical scores were recorded until the end of the experiment.
Clinical score: scores were given according to different degrees of lesions (redness and swelling, arthrentasis) on a scale of 0-4 points, the highest score was 4 points for each limb and 16 points for each animal.
Experimental data were represented as mean±standard error. Body weight and clinical score were analyzed by two-way ANOVA, and difference with p<0.05 was considered as significant.

[3] = system: mesenteric lymph node immune cell subpopulations; test: Flow cytometry of immune cell subpopulations and cytokines in mesenteric lymph nodes of DSS colitis mice (Examples 2, 4); format: in vivo, C57BL/6J mice; settings: 30 mg/kg PO QD × 8 days (Test group 1#) vs solvent group
Procedure: The experimental endpoint was 24 hours after administration on Day 8 for the positive drug control group and the Test group 1 #to Test group 7 #of Example 1; the experimental endpoint of the normal group and the solvent group was the same as that of the positive drug control group and Test group 1 #to Test group 7 #.
At the experimental endpoint, mesenteric lymphatic nodes were collected and treated as follows:
1) The mesenteric lymph nodes were gently grinded and filtered with a […] strainer (BD bioscience, Catalog No. 352350) to obtain a cell suspension, and the cells were counted.
2) The cells were suspended in a suspension solution (the suspension solution was prepared by the following process: diluting the cell activation mixture with a mixture of 90 v % 1640 medium and 10 v % fetal bovine serum to a concentration of 1×), the cell density was adjusted to 2.5×10^7/mL, and the cells were incubated at 37° C. for 5 hours. 3) The cells were washed with Dulbecco's Phosphate Buffered Saline, and stained with viable/dead stain (stain No. 12 in Table 5) at room temperature for 15 min to distinguish between viable cells and dead cells; the cells were washed with staining buffer (prepared by mixing fetal bovine serum and Dulbecco's Phosphate Buffered Saline at a volume ratio of 2:98), Fc block working solution (prepared by mixing Fc block and staining buffer at a volume ratio of 1:200) was added, and the cells were incubated at room temperature for 15 minutes.
4) The cells were surface labeled with 100 μL of antibody staining solution for flow cytometry without washing and incubated at 4° C. for 30 minutes.
5) The cells were washed once with staining buffer, 100 μL of cell fixative solution was added, and the cells were incubated at 4° C. overnight.
6) 200 μL of cell permeabilization solution was added and incubated at 4° C. for 30 minutes.
7) After washing with 250 μL of cell permeabilization solution, the cells were suspended with 100 μL of staining buffer and fluorescence was detected with a BD LSRFortessa instrument.
8) The cell subpopulations analyzed by flow cytometry included CD4+ T cell subpopulation, IL-17A+CD4+ T cell subpopulation, IFN-γ+CD4+ T cell subpopulation, TNF-α+CD4+ T cell subpopulation, CD25+FOXP3+ Treg cell subpopulation; CD8+ T cell subpopulation, IL-17A+CD8+ T cell subpopulation, IFN-γ+CD8+ T cell subpopulation, TNF-α+CD8+ T cell subpopulation; CD69+B220+ B cell subpopulation and NK1.1+CD107a+ NK cell subpopulation.

[4] = G4 Test group 1#, 3 mg/kg PO QD × 7
[5] = G5 Test group 2#, 10 mg/kg PO QD × 7
[6] = G6 Test group 3#, 30 mg/kg PO QD × 7

Structure (SMILES): NCc1c[nH]c(=S)n1[C@H]1CCc2c(F)cc(F)cc2C1 [Nepicastat]
- inhibition at 3 mg/kg ([1]; 3 mg/kg (Test group 1#), read-out: inhibition rate of CW/BW): 40.2%
- inhibition at 3 mg/kg ([1]; 3 mg/kg (Test group 1#), read-out: inhibition rate of CW/CL): 30.8%
- inhibition at 3 mg/kg ([1]; 3 mg/kg (Test group 1#), read-out: inhibition rate of CW/CL/BW): 33%
- inhibition at 10 mg/kg ([1]; 10 mg/kg (Test group 2#), read-out: inhibition rate of CW/BW): 47.1%
- inhibition at 10 mg/kg ([1]; 10 mg/kg (Test group 2#), read-out: inhibition rate of CW/CL): 43.8%
- inhibition at 10 mg/kg ([1]; 10 mg/kg (Test group 2#), read-out: inhibition rate of CW/CL/BW): 45%
- inhibition at 30 mg/kg ([1]; 30 mg/kg (Test group 3#), read-out: inhibition rate of CW/BW): 39.9%
- inhibition at 30 mg/kg ([1]; 30 mg/kg (Test group 3#), read-out: inhibition rate of CW/CL): 26.7%
- inhibition at 30 mg/kg ([1]; 30 mg/kg (Test group 3#), read-out: inhibition rate of CW/CL/BW): 27.1%
- inhibition at 3 mg/kg ([1]; G4 Test group 1#, 3 mg/kg PO QD × 7, read-out: IR1 (inhibition rate 1, CW/CL/BW)): 33%
- inhibition at 3 mg/kg ([1]; G4 Test group 1#, 3 mg/kg PO QD × 7, read-out: IR2 (inhibition rate 2, CW/BW)): 40.2%
- inhibition at 3 mg/kg ([1]; G4 Test group 1#, 3 mg/kg PO QD × 7, read-out: IR3 (inhibition rate 3, CW/CL)): 30.8%
- inhibition at 10 mg/kg ([1]; G5 Test group 2#, 10 mg/kg PO QD × 7, read-out: IR1 (inhibition rate 1, CW/CL/BW)): 45%
- inhibition at 10 mg/kg ([1]; G5 Test group 2#, 10 mg/kg PO QD × 7, read-out: IR2 (inhibition rate 2, CW/BW)): 47.1%
- inhibition at 10 mg/kg ([1]; G5 Test group 2#, 10 mg/kg PO QD × 7, read-out: IR3 (inhibition rate 3, CW/CL)): 43.8%
- inhibition at 30 mg/kg ([1]; G6 Test group 3#, 30 mg/kg PO QD × 7, read-out: IR1 (inhibition rate 1, CW/CL/BW)): 27.1%
- inhibition at 30 mg/kg ([1]; G6 Test group 3#, 30 mg/kg PO QD × 7, read-out: IR2 (inhibition rate 2, CW/BW)): 39.9%
- inhibition at 30 mg/kg ([1]; G6 Test group 3#, 30 mg/kg PO QD × 7, read-out: IR3 (inhibition rate 3, CW/CL)): 26.7%
- BW [1, 4]: 168.65 g
- CW/BW ×100 [1, 4]: 1.05
- Ulcer area [1, 4]: 1.36 cm^2
- Ulcer length [1, 4]: 1.08 cm
- Ulcer width [1, 4]: 0.87 cm
- BW [1, 5]: 169.54 g
- CW/BW ×100 [1, 5]: 1.01
- Ulcer area [1, 5]: 1.17 cm^2
- Ulcer length [1, 5]: 0.97 cm
- Ulcer width [1, 5]: 0.73 cm
- BW [1, 6]: 164.62 g
- CW/BW ×100 [1, 6]: 1.05
- Ulcer area [1, 6]: 1.35 cm^2
- Ulcer length [1, 6]: 1.09 cm
- Ulcer width [1, 6]: 0.95 cm
- effect on collagen-induced arthritis in mice [2]: had some known effects on collagen-induced arthritis in mice, but not as obvious as the positive control drug
- proportion of CD4+ T cell subpopulation [3]: reduce the proportion
- proportion of CD25+FOXP3+ Treg cell subpopulation [3]: increase the proportion
- secretion of IFN-γ by CD4+ T cell subpopulation [3]: reduce the secretion
- secretion of IL-17A by CD4+ T cell subpopulation [3]: reduce the secretion
- secretion of TNF-α by CD4+ T cell subpopulation [3]: reduce the secretion
